{"source": "paper PMC5640650", "about": "“NatD promotes lung cancer progression by preventing histone H4 serine phosphorylation to activate Slug expression” (Nature Communications, 2017)", "key": {"[1]": {"tested_on": "Slug promoter", "assay": "Slug promoter luciferase reporter assay, H1299 cells", "format": "cell-based, human", "settings": "1155-bp Slug promoter in pGL3-basic, beta-galactosidase normalized", "experimental": "Response to the reviewers' comments:\nQ1. In relation to Query 11 where Slug promoter analyses were requested to functionally test the consequences of epigenetic changes, the authors argue “it is less […]\npromoter activity in cytoplasm where functional nucleosomes (composed of histone and DNA) are not formed”. I disagree with the authors’ response since it would invalidate all promoter assays performed in many different situations in which the action of “nuclear” transcription factors is analyzed with exogenous promoters that need to be translocated to the nucleus for functional activity. Thus, although I agree that the epigenetic changes might not be easily reproduced in the exogenous promoters, the authors should made the effort to perform this requested experimental […]\nWe agree with the reviewer that the experiment should be performed. Therefore, we cloned a 1155-bp Slug promoter fragment [Ref: Morita T et al., J Cell Biol. 2007, 179(5): 1027-1042] into the pGL3-basic luciferase vector (sequence confirmed by DNA sequencing). The activity of Slug promoter in the different situations (control […]\nNatD) were analyzed; pSV-beta-Gal plasmid expressing beta-galactosidase was used as the normalization control according to Cold Spring Harbor Protocol [Smale ST.\nBeta-galactosidase assay. Cold Spring Harb Protoc 2010: pdb prot5423]. As the […]"}, "[2]": {"tested_on": "promoters of Zeb1, Zeb2, Twist1, and Snail", "assay": "ChIP assay on the promoters of Zeb1, Zeb2, Twist1, and Snail, H1299 cells", "format": "cell-based, human", "settings": "vs Scr", "experimental": "ChIP assays were performed with H1299 cells in accordance with standard protocols. Normal rabbit IgG served as the control. ChIP samples were analyzed by quantitative real-time PCR using the FastStart Universal SYBR Green Master (Roche). A standard curve was prepared for each set of primers using serial titration of the input DNA. The percentage of ChIP DNA was calculated relative to the input DNA from primer-specific standard curves using the Rotor-Gene 6000 Series Software 1.7. The primer sequences for ChIP are listed in Supplementary Table 4. Antibodies used were: H4S1ph (Abcam; ab14723), H4K5ac (Millipore; CS204381), H4R3me2a (Active Motif; 39705), H4R3me2s (Abcam; ab5823), CK2α (Abcam; ab70774), H3K4me3 (Abcam; ab8580), and H3K27me3 (Abcam; ab6002).\nSupplementary Figure 7. Knockdown of NatD has no effect on enrichment of H4S1ph on some EMT-related gene promoters. (a-d) ChIP analysis of the enrichment of Nt-ac-H4, H4S1ph, H3K4me3 and H3K27me3 on the promoter of Zeb1(a), Zeb2(b), Twist1(c), and Snail (d) in Scr and NatD-KD H1299 cells. IgG served as a negative control. Results are shown as mean ± s.d. of three independent experiments; two-tailed Student’s t-test, **P<0.01 or *P<0.05 compared to Scr […]\n(1 picture or pasted object on this page, not shown here)"}}, "data": [{"substance": "NatD-KD2: Human NatD shRNA KD2: 5′-GGTTGAATGTCTCCATTGA-3′, lentiviral (shRNA lentiviral)", "values": [{"measurement": "Slug promoter luciferase activity", "setting": "[1]", "result": "no significant changes in luciferase activity"}, {"measurement": "enrichment of H4S1ph, H3K4me3, and H3K27me3 on Zeb1, Zeb2, Twist1, Snail promoters", "setting": "[2]", "result": "unchanged"}, {"measurement": "enrichment of Nt-ac-H4 on Zeb1, Zeb2, Twist1, Snail promoters", "setting": "[2]", "result": "reduced"}]}]}
